{
  "source": "patent US20170313669A1",
  "about": "“LACTONE COMPOUNDS AND METHODS OF MAKING AND USING SAME” (THE SCRIPPS RESEARCH INSTITUTE, priority 2015, published 2017)",
  "key": {"COLO205 cells": {"system": "COLO205 cells", "assay": "LC-MS lipid profiling of treated cells", "type": "cell-based, human", "conditions": "1 μM, 4 h", "description": "ABHD16A^+/+, ABHD16A^+/+, and ABHD16A^−/− littermates of 10 weeks age were anaesthetized by isoflurane and killed by decapitation. The tissues (brains were sliced laterally into two hemispheres; entire spinal cord) were harvested, weighed, and immediately submerged in liquid N2. Tissues (one half brain or entire spinal cord) were then Dounce-homogenized in 8 mL of 2:1:1 (vol/vol/vol) CHCl3: MeOH: PBS containing the internal standard mix (1 nmol 17:1 FFA, and 100 pmol each of 17:1 lyso-PS, 17:0-20:4 PS, 17:1 lyso-PC, 17:0-20:4 PC, 17:0-20:4 PE and 50 pmol of 2-AG-d5). Homogenates were transferred to a glass vial and centrifuged at 2800×g for 10 minutes to separate the two phases. The organic phase (bottom) was removed, 200 μL of formic acid was added to acidify the aqueous homogenate (to enhance extraction of phospholipids), and CHCl3 was added to make up 8 mL volume. The mixture was vortexed, and separated using centrifugation described above. Both the organic extracts were pooled, and dried under a stream of N2. The metabolomes were then re-solubilized in 120 μL of 2:1 (vol/vol) CHCl3: MeOH, and 10 μL were used for the targeted LC-MS analysis. For cellular and secreted metabolomics studies, serum free phenol red free RPMI 1640 media was used to prevent any promiscuous contributions from serum lipids. For the cellular metabolomics studies, 3×10^6 cells were used for all cancer cell lines (COLO205, K562, and MCF7) and lymphoblast cell lines (LCLs), and 2×10^6 cells were used for thioglycollate-elicited peritoneal macrophages. […]\nAll the metabolites analyzed in this study were quantified using the multiple reaction monitoring (MRM) methods the targeted LC/MS analysis was done using an Agilent Technologies 6460 Triple Quad LC/M with an Agilent Technologies 1290 Infinity series quaternary pump. All data was collected using the LC/MS Data Acquisition mode of the Mass Hunter Workstation Software version B.05.00 build 5.0.5027.0 SP, and analyzed using the Quantitative Analysis mode of the same software. […]"}, "[1]": {"system": "mouse peritoneal macrophages", "assay": "LPS-induced cytokine release from peritoneal macrophages", "type": "cell-based", "conditions": "pre-treatment 1 μM, 4 h; LPS 5 μg/mL, 7 h", "description": "All PS-lipase substrate assays were performed on either 18:0-18:2 PS (Avanti Catalog #840063) or 16:0-18:1 PS (Avanti Catalog #840034). 17:1 FFA (Sigma-Aldrich #H8896) was used an internal standard for substrate assays, as well as lipidomic analysis. 2-AG-d5 (Catalog #362162) and PGE2-d9 (Catalog #10581) were purchased from Cayman Chemicals. COLO205, MCF7, K562 and HEK293T cells were purchased from ATCC. All full-length cDNA constructs coding for serine hydrolases ABHD16A, and ABHD12 were purchased from Open Biosystems (GE Healthcare), and all primers were obtained from Integrated DNA Technologies. All DNA sequencing was performed by Eton Biosciences Inc. All cytokine analysis was done using single analyte ELISA kits purchased from R&D Systems, Mouse TNF-α (Catalog # DY410), Mouse IL-6 (Catalog # DY406), and Mouse IL-1β (Catalog # DY401). All tissue culture media and supplements (RPMI 1640, DMEM, and Trypsin) were purchased from Caisson Labs, and SILAC RPMI was purchased from Thermo Scientific. […]\nPeritoneal macrophages were elicited and harvested from mice according to the standard protocols available from LIPID MAPS (See http://www.lipidmaps.org/protocols/PP0000001400.pdf and http://www.lipidmaps.org/protocols/PP0000001500.pdf). […] Cell counts measured using a Bio-Rad TC10 automated cell counter, and equal numbers of cells (2×10^6) were plated in 10 cm tissue culture dishes. […]"}, "ABHD12−/− macrophages": {"system": "ABHD12−/− macrophages", "assay": "Lyso-PS and cytokine secretion of ABHD12−/− macrophages", "type": "cell-based, mouse", "conditions": "pre-treatment 1 μM, 4 h", "description": "(a, b) Concentrations of secreted cytokines from ABHD12^+/+ and ABHD12^−/− thioglycollate-elicited peritoneal macrophages that were either unstimulated (PBS) (a) or stimulated (b) with LPS (5 μg/mL, 7 h). […] Student's t-test: * p<0.05 for ABHD12^−/− and ABHD12^+/+ groups. (c) Concentrations of secreted lyso-PS from ABHD12^+/+ and ABHD12^−/− macrophages treated with vehicle (PBS) or LPS (5 μg/mL) for 7 h. […] Student's t-test: ** p<0.0005, *** p<0.0001 for KC01-treated versus DMSO-treated groups.\nPeritoneal macrophages were elicited and harvested from mice according to the standard protocols available from LIPID MAPS (See http://www.lipidmaps.org/protocols/PP0000001400.pdf and http://www.lipidmaps.org/protocols/PP0000001500.pdf). After removal of the RBC lysis buffer, the macrophages were re-suspended in RPMI 1640 with 10% FCS and IX penicillin-streptomycin. Cell counts measured using a Bio-Rad TC10 automated cell counter, and equal numbers of cells (2×10^6) were plated in 10 cm tissue culture dishes. Macrophages were allowed to adhere to the plates for 2 h at 37° C. and 5% CO2. […] Macrophages were then stimulated with lipopolysaccharide (5 μg/mL) for 7 hours. Sterile PBS was the vehicle in these studies. Four milliliters of the media was used for measuring secreted metabolites, and 0.5 mL was used for cytokine measurements."}},
  "data": [
    {"smiles": "CCCCCCCCCCCCCC1OC(=O)/C1=C\\CCCCC(N)=O", "note": "(centres unmarked) [KC01, (Z)-6-(2-oxo-4-tridecyloxetan-3-ylidene)hexanamide]", "values": [
      {"measurement": "other lipids (PSs, PCs, PEs, lyso-PCs, lyso-PEs, MAGs)", "setting": "COLO205 cells", "value": "No changes"},
      {"measurement": "secreted lyso-PSs (18:1 and 18:0)", "setting": "COLO205 cells; serum-free media", "value": "decreased"},
      {"measurement": "cellular lyso-PSs", "setting": "COLO205 cells; vs DMSO", "value": "significant reductions in all detected cellular lyso-PSs"},
      {"measurement": "LPS-induced cytokine release", "setting": "[1]", "value": "significantly blunted"},
      {"measurement": "LPS-induced increases in lyso-PSs and cytokine secretion", "setting": "ABHD12−/− macrophages", "value": "both blocked"}
    ]}
  ]
}
